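In this assay, cells in 96-well plates receive the compound at five concentrations for 48 hours. Endpoints are linearly interpolated between the surrounding concentrations. GI50 = concentration required for 50% inhibition of growth.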 Calls of active or inactive are those of the source. Cut-off read from the data, not from the text of the source: active = GI50 up to about 1.1 µM and inactive = higher.
Legend:
Experiment in all cases: growth of human tumour cells (NCI), 48 h
[1] = tested on: T47D
[2] = tested on: OVCAR-4
[3] = tested on: K562
[4] = tested on: UACC-62
[5] = tested on: Malme-3M
[6] = tested on: OVCAR-8
[7] = tested on: NCI-H522
[8] = tested on: SK-MEL-2
[9] = tested on: EKVX
[10] = tested on: SK-MEL-28
[11] = tested on: SK-OV-3
[12] = tested on: MDA-N
[13] = tested on: BT-549
[14] = tested on: NCI/ADR-RES
[15] = tested on: IGROV-1
[16] = tested on: SN12C
[17] = tested on: SF-539
[18] = tested on: A549
[19] = tested on: U-251
[20] = tested on: HCC 2998
[21] = tested on: M14
[22] = tested on: DU-145
[23] = tested on: SF-268
[24] = tested on: UO-31
[25] = tested on: SR
[26] = tested on: HL-60
[27] = tested on: OVCAR-3
[28] = tested on: RPMI-8226
[29] = tested on: HCT-116
[30] = tested on: UACC-257
[31] = tested on: HOP-92
[32] = tested on: MOLT-4
[33] = tested on: MCF7
[34] = tested on: OVCAR-5
[35] = tested on: KM12
[36] = tested on: SNB-75
[37] = tested on: CCRF-CEM
[38] = tested on: RXF 393
[39] = tested on: SK-MEL-5
[40] = tested on: SW-620
[41] = tested on: TK-10
[42] = tested on: MDA-MB-231
[43] = tested on: 786-0
[44] = tested on: NCI-H226
[45] = tested on: NCI-H460
[46] = tested on: SF-295
[47] = tested on: COLO 205
[48] = tested on: PC-3
[49] = tested on: SNB-19
[50] = tested on: Hs-578T
[51] = tested on: HT-29
[52] = tested on: NCI-H23
[53] = tested on: MDA-MB-435
[54] = tested on: CAKI-1
[55] = tested on: HCT-15
[56] = tested on: HOP-62
[57] = tested on: A498
[58] = tested on: LOX IMVI
[59] = tested on: ACHN

COc1cc(C2SCC(=O)N2c2ccc(Cl)cc2)cc(I)c1O (stereo unspecified)
GI50 [1]: 5.45 µM (inactive) | GI50 [2]: 3.37 µM (inactive) | GI50 [3]: 0.501 µM (active) | GI50 [4]: 0.305 µM (active) | GI50 [5]: > 100 µM (inactive) | GI50 [6]: > 100 µM (inactive) | GI50 [7]: 55.8 µM (inactive) | GI50 [8]: 23.9 µM (inactive) | GI50 [9]: 8.13 µM (inactive) | GI50 [10]: 22 µM (inactive) | GI50 [11]: > 100 µM (inactive) | GI50 [12]: 3.37 µM (inactive) | GI50 [13]: 48.8 µM (inactive) | GI50 [14]: > 69 µM (inactive) | GI50 [15]: > 100 µM (inactive) | GI50 [16]: > 100 µM (inactive) | GI50 [17]: > 35.9 µM (inactive) | GI50 [18]: 46.7 µM (inactive) | GI50 [19]: > 100 µM (inactive) | GI50 [20]: 65.2 µM (inactive) | GI50 [21]: 4.86 µM (inactive) | GI50 [22]: > 100 µM (inactive) | GI50 [23]: > 86.7 µM (inactive) | GI50 [24]: > 100 µM (inactive) | GI50 [25]: 3.53 µM (inactive) | GI50 [26]: 15.7 µM (inactive) | GI50 [27]: 33.8 µM (inactive) | GI50 [28]: 5.85 µM (inactive) | GI50 [29]: 18.5 µM (inactive) | GI50 [30]: 11.8 µM (inactive) | GI50 [31]: 57 µM (inactive) | GI50 [32]: 21.9 µM (inactive) | GI50 [33]: 4.75 µM (inactive) | GI50 [34]: > 100 µM (inactive) | GI50 [35]: 7.01 µM (inactive) | GI50 [36]: > 100 µM (inactive) | GI50 [37]: 46.1 µM (inactive) | GI50 [38]: > 100 µM (inactive) | GI50 [39]: 6.52 µM (inactive) | GI50 [40]: > 100 µM (inactive) | GI50 [41]: > 94.6 µM (inactive) | GI50 [42]: > 100 µM (inactive) | GI50 [43]: > 100 µM (inactive) | GI50 [44]: > 90.2 µM (inactive) | GI50 [45]: 2.74 µM (inactive) | GI50 [46]: 4.72 µM (inactive) | GI50 [47]: 2.64 µM (inactive) | GI50 [48]: > 100 µM (inactive) | GI50 [49]: > 100 µM (inactive) | GI50 [50]: 97.1 µM (inactive) | GI50 [51]: > 100 µM (inactive) | GI50 [52]: 25.5 µM (inactive) | GI50 [53]: 1.56 µM (inactive) | GI50 [54]: 6.43 µM (inactive)

COc1ccc2[nH]c3c([N+](=O)[O-])ccc(Cl)c3c(=O)c2c1
GI50 [1]: 29.2 µM (inactive) | GI50 [2]: 15.4 µM (inactive) | GI50 [3]: 2.99 µM (inactive) | GI50 [4]: 18 µM (inactive) | GI50 [5]: 19.6 µM (inactive) | GI50 [6]: 22 µM (inactive) | GI50 [7]: 19 µM (inactive) | GI50 [8]: 22.1 µM (inactive) | GI50 [9]: 44.1 µM (inactive) | GI50 [10]: 27.2 µM (inactive) | GI50 [11]: > 63.1 µM (inactive) | GI50 [12]: 21.2 µM (inactive) | GI50 [55]: 14.2 µM | GI50 [13]: 17.2 µM (inactive) | GI50 [14]: 25.6 µM (inactive) | GI50 [15]: 13.1 µM (inactive) | GI50 [16]: 22.9 µM (inactive) | GI50 [17]: 17.9 µM (inactive) | GI50 [18]: 62.4 µM (inactive) | GI50 [19]: 25.4 µM (inactive) | GI50 [20]: 28.9 µM (inactive) | GI50 [21]: 15.8 µM (inactive) | GI50 [22]: 47.3 µM (inactive) | GI50 [23]: 20.8 µM (inactive) | GI50 [56]: 26.7 µM (inactive) | GI50 [24]: 17.3 µM (inactive) | GI50 [26]: 3.02 µM (inactive) | GI50 [27]: 16.8 µM (inactive) | GI50 [28]: 17.4 µM (inactive) | GI50 [29]: 13.7 µM (inactive) | GI50 [30]: 11.5 µM (inactive) | GI50 [31]: 14 µM (inactive) | GI50 [32]: 3.52 µM (inactive) | GI50 [33]: 25.1 µM (inactive) | GI50 [34]: > 43 µM (inactive) | GI50 [57]: 91.2 µM (inactive) | GI50 [35]: > 45.5 µM (inactive) | GI50 [37]: 2.12 µM (inactive) | GI50 [38]: 13.6 µM (inactive) | GI50 [39]: 23.9 µM (inactive) | GI50 [58]: 7.71 µM (inactive) | GI50 [40]: 7.67 µM (inactive) | GI50 [41]: 20.2 µM (inactive) | GI50 [42]: 18 µM (inactive) | GI50 [43]: 16.7 µM (inactive) | GI50 [44]: 34.4 µM (inactive) | GI50 [45]: 29 µM (inactive) | GI50 [46]: 38 µM (inactive) | GI50 [47]: 17 µM (inactive) | GI50 [48]: 22.5 µM (inactive) | GI50 [49]: 51.4 µM (inactive) | GI50 [59]: 15.8 µM (inactive) | GI50 [50]: 30.3 µM (inactive) | GI50 [51]: 16.3 µM (inactive) | GI50 [52]: 24.8 µM (inactive) | GI50 [53]: 21 µM (inactive) | GI50 [54]: 23.2 µM (inactive)
